According to patent US6071947A, “Indolyl-pyrrolydenemethylpyrrole derivatives and process for their preparation” (Pharmacia & Upjohn S.p.A., priority 1997, dated 2000):
Structures can show the parent of a compound that is named as a salt. Where two headings read alike, the source gives them in different places.

Experiments:
[1] = system: Delayed-Type Hypersensitivity; assay: Test n° 4: in vivo DTH (Delayed-Type Hypersensitivity) assay, SRBC-induced footpad thickness increase; parameters: species or system female C57 B1/6 mice; conditions: Mus musculus, read-out: DTH ED30 os
Description: Comparative in Vivo Activity Evaluation by DTH Assay
The immunosuppressive activity of the compounds of the invention was evaluated in vivo by DTH (Delayed-Type Hypersensitivity) assay. According to the test, sheep red blood cells (SRBC) (1×10^5 cells) suspended in 500 mcL saline, were injected i.v. into the tail vein of female C57 B1/6 mice (8-9 week old). Five days later 1×10^8 SRBC suspended in 50 mcL saline were injected into the left hind footpad. The increase in footpad thickness was measured with a dial micrometer 24 h after challenge. The test compounds were given daily for six days at different doses starting on the day of priming.

[2] = Test n° 5: in vivo bioavailability evaluation after oral administration; conditions: rat, 10 mg/kg
Description: In Vivo Bioavailability Evaluation
Aim of the study is to determine the pharmacokinetics and the oral bioavailability of the instant compounds in rats.
Species/strain/sex: rat/Lewis/male
No. formulations: 1 oral; 1 intravenous
No. animals/formulation: 3+2 controls (+an ulterior rat treated with the iv formulation); total 9
Dosages: iv: 1 mg salt/kg; oral: 10 mg salt/kg
Vehicles: iv: a solution at the conc. of 5 mg/ml in PEG 400/Tween 80 (6:1 v:v) was prepared, then diluted with dextrose at the final concentration of 0.5 mg/ml; oral: a solution at the concentration of 5 mg/ml in Cremophor ELP/EtOH abs (6.5:3.5 v:v) was prepared, then diluted with saline at the final concentration of 1 mg/ml
Experimental: Three cannulated rats/formulation were treated. One rat/formulation was only treated with the vehicle, as basal sample. The intravenous administration was given into the caudal vein as bolus; the oral administration by gastric gavage as solution. […] Plasma was immediately obtained by centrifugation (10000 rpm for 3 min) and stored in labelled tubes at -30° C. till analysis.
Analytical assay: the extraction of the compounds was performed by protein precipitation by adding 100 mcl of acetonitrile to 25 mcl of plasma. The concentrations of the compounds (as free bases) in plasma were determined by LC-MS method. Column: APEX CN RP 5 mc, 10×4 mm (Jones chromatography); mobil phase: 70% acetonitrile/30% 1 mM ammonium formate +0.01% triethylamine adjusted to pH 2.0 with formic acid; flow rate: 1 ml/min; injection volume: 10 mcL; oven temperature: 45° C.; MS detection by APCI using MRM positive ion; MRM transition: 330 m/z>239 m/z, retention time: 1.4 min; LLOQ: 5.03 ng/ml; ULOQ: 10060 ng/ml.

[3] = system: Th2 murine cells D10-G4.1 (ATCC TIB 224); assay: Inhibition of IL-2 proliferation induced activity (D10 cells, 3H-TdR uptake); format: cell-based
Description: Inhibition of IL-2 Proliferation Induced Activity
The Th2 murine cells D10-G4.1 (ATCC TIB 224) are IL-2 dependent for their growth. They are cultured in complete RPMI 1640 medium enriched with rhIL-2 (6 ng/ml) and ConA (6 ng/ml).
For testing the inhibitory effects of the compounds of the invention on IL-2 activity, D 10 cells are washed twice with complete medium, resuspended at 10^5 cells/ml in the same medium and triplicately distributed (10^4 cells/well) in flat bottomed 96 well plates. […] and […] at different concentrations are simultaneously added to the cells. The cultures are then incubated at 37° C. in a humidified 5% CO2 incubator for 48 h, the last 18 h in the presence of 0.2 μCi of ^3 H-TdR.
Uptake of 3H-TdR in the cells (cpm) is taken as a measure of cell proliferation.

[4] = oral (os), daily for six days, dose able to reduce by 30% the footpad thickness increase compared to controls, 24 h after challenge, mice

| bioavailability ([2]; plasma) [%] | Compound | ED30 ([1]; 24 h) [mg/kg] | bioavailability ([2]; in vivo) [%] | ED30 [1, 4] [mg/kg] | 3HTdR uptake ([3]; 10 ng/ml, mean cpm from triplicate wells (SE), vehicle 61231 (1193)) | 3HTdR uptake ([3]; 30 ng/ml, mean cpm from triplicate wells (SE), vehicle 61231 (1193)) | 3HTdR uptake ([3]; 0.1 ug/mL) | inhibition at 0.01 µg/mL ([3]; Mus musculus, 10 ng/ml, 48 h, read-out: % inhibition vs vehicle) [%] | inhibition at 0.03 µg/mL ([3]; Mus musculus, 30 ng/ml, 48 h, read-out: % inhibition vs vehicle) [%] | inhibition at 0.1 µg/mL ([3]; Mus musculus, 100 ng/ml, 48 h, read-out: % inhibition vs vehicle) [%] |
| --- | --- | --- | --- | --- | --- | --- | --- | --- | --- | --- |
|  | CCCCCCCCCCCC1=NC(=Cc2[nH]c(-c3cc4ccccc4[nH]3)cc2OC)C=C1.Cl [PNU 166823, 2-(1H-indol-2-yl)-4-methoxy-5-[(5-undecyl-2H-pyrrol-2-ylidene)methyl]-1H-pyrrole, hydrochloride] | 8.8 | 5 |  |  |  |  |  |  |  |
| 38 | CCCCCC1=NC(=Cc2[nH]c(-c3cc4ccccc4[nH]3)cc2OC)C=C1.Cl [PNU 190192, 2-(1H-indol-2-yl)-4-methoxy-5-[(5-pentyl-2H-pyrrol-2-ylidene)methyl]-1H-pyrrole, hydrochloride] |  |  | 7.1 | 57325 (1280) cpm | 29681 (1528) cpm | 1388 (62) cpm | 6 | 52 | 98 |
| 82 | COc1cc(-c2cc3ccccc3[nH]2)[nH]c1C=C1C=CC(C)=N1.Cl [PNU 190364, 2-(1H-indol-2-yl)-4-methoxy-5-[(5-methyl-2H-pyrrol-2-ylidene)methyl]-1H-pyrrole, hydrochloride] |  |  | 6.6 |  |  |  |  |  |  |
| 20 | CC1=NC(=Cc2[nH]c(-c3cc4ccccc4[nH]3)cc2OCc2ccccc2)C=C1 [PNU 190537, 2-(1H-indol-2-yl)-4-benzyloxy-5-[(5-methyl-2H-pyrrol-2-ylidene)methyl]-1H-pyrrole, hydrochloride] |  |  | 11.9 |  |  |  |  |  |  |
